In patent US10875876B2, “Cyclized sulfamoylarylamide derivatives and the use thereof as medicaments for the treatment of hepatitis B” (priority 2015, dated 2020):
Where two headings read alike, the source gives them in different places.

Assays:
[1] = system: HBV; experiment: anti HBV activity, HepG2.117 cell line, intracellular HBV DNA by realtime PCR; type: cell-based; details: HepG2.117 cell line (Tet-off), 3 days of treatment, intracellular HBV DNA quantified by realtime PCR, read-out: HBV-AVE-HepG2.117 EC50
How it was run: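 Readout was intracellular HBV DNA by real-time PCR (HBV-specific primers and probe) after 3 days of compound exposure. Serial dilutions were tested in duplicate on HepG2.117 cells, a stable inducible HBV producer in which replication is switched on when doxycycline is absent.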

[2] = Cytotoxicity in HepG2 cells, Resazurin assay; details: human, HepG2 cells, TOX-HepG2-4 d CC50 (μM), HepG2 cells incubated for 4 days, viability by Resazurin assay
[3] = Hepatitis B virus, HepG2.117, 72 h

Compound	EC50 [1, 3] [nM]	CC50 at 4 days [2] [µM]	EC50 [1] [nM]
C[C@H](O)[C@H]1COc2c(cn(C)c2C(=O)Nc2ccc(F)c(F)c2)S(=O)(=O)N1 [Compound 35, (3R)—N-(3,4-difluorophenyl)-3-[(1S)-1-hydroxyethyl]-7-methyl-1,1-dioxo-3,4-dihydro-2H-pyrrolo[3,4-b][1,4,5]oxathiazepine-6-carboxamide]	12	> 25	–
Cn1cc2c(c1C(=O)Nc1ccc(F)c(Cl)c1)OCC(C)(Cc1ccc(Cl)nc1)NS2(=O)=O (stereo not shown) [Compound 198, N-(3-chloro-4-fluoro-phenyl)-3-[(6-chloro-3-pyridyl)methyl]-3,7-dimethyl-1,1-dioxo-2,4-dihydropyrrolo[3,4-b][1,4,5]oxathiazepine-6-carboxamide]	11	> 25	–
Cn1cc2c(c1C(=O)Nc1ccc(F)c(F)c1)OC[C@H](c1ccccc1)NS2(=O)=O [Compound 26, (3S)—N-(3,4-difluorophenyl)-7-methyl-1,1-dioxo-3-phenyl-3,4-dihydro-2H-pyrrolo[3,4-b][1,4,5]oxathiazepine-6-carboxamide]	27	> 25	–
C[C@H](O)[C@H]1COc2c(cn(C)c2C(=O)Nc2ccnc(C(F)F)c2)S(=O)(=O)N1 [Compound 77, (3R)—N-[2-(difluoromethyl)-4-pyridyl]-3-[(1S)-1-hydroxyethyl]-7-methyl-1,1-dioxo-3,4-dihydro-2H-pyrrolo[3,4-b][1,4,5]oxathiazepine-6-carboxamide]	230	> 25	–
Cc1cc(NC(=O)c2c3c(cn2C)S(=O)(=O)N[C@@H](C)C=C3)ccc1F (single isomer, unassigned) [Compound 31, (*S)—N-(4-fluoro-3-methyl-phenyl)-3,7-dimethyl-1,1-dioxo-2,3-dihydropyrrolo[3,4-f]thiazepine-6-carboxamide]	9	> 25	–
Cn1cc2c(c1C(=O)Nc1ccc(F)c(F)c1)CCNS2(=O)=O [Compound 13, N-(3,4-difluorophenyl)-6-methyl-1,1-dioxo-3,4-dihydro-2H-pyrrolo-[3,4-e]thiazine-5-carboxamide]	110	> 25	–
C[C@H]1CCc2c(cn(C)c2C(=O)Nc2ccc(F)c(C(F)F)c2)S(=O)(=O)N1 (single isomer, unassigned) [Compound 55, (3*S)—N-[3-(difluoromethyl)-4-fluoro-phenyl]-3,7-dimethyl-1,1-dioxo-2,3,4,5-tetrahydropyrrolo[3,4-f]thiazepine-6-carboxamide]	3	> 25	–
CCC(O)[C@@H]1COc2c(cn(C)c2C(=O)Nc2ccc(F)c(F)c2)S(=O)(=O)N1 (stereo in doubt) [Compound 142b, N-(3,4-difluorophenyl)-3-(1-hydroxypropyl)-7-methyl-1,1-dioxo-3,4-dihydro-2H-pyrrolo[3,4-b][1,4,5]oxathiazepine-6-carboxamide]	> 125	> 25	–
Cn1cc2c(c1C(=O)Nc1ccnc(C(F)(F)F)c1)C=CC(C(F)(F)F)NS2(=O)=O (stereo not shown) [Compound 58, 7-methyl-1,1-dioxo-3-(trifluoromethyl)-N-[2-(trifluoromethyl)-4-pyridyl]-2,3-dihydropyrrolo[3,4-f]thiazepine-6-carboxamide]	290	> 25	–
CC(C)C(O)C1COc2c(cn(C)c2C(=O)Nc2ccc(F)c(F)c2)S(=O)(=O)N1 (single isomer, unassigned) [Compound 114a, N-(3,4-difluorophenyl)-3-(1-hydroxy-2-methyl-propyl)-7-methyl-1,1-dioxo-3,4-dihydro-2H-pyrrolo[3,4-b][1,4,5]oxathiazepine-6-carboxamide]	–	> 25	22
Cc1cc(NC(=O)c2c3c(cn2C)S(=O)(=O)N[C@@H](C(O)C2CC2)CO3)ccc1F (single isomer, unassigned) [Compound 206a, 3-[cyclopropyl(hydroxy)methyl]-N-(4-fluoro-3-methyl-phenyl)-7-methyl-1,1-dioxo-3,4-dihydro-2H-pyrrolo[3,4-b][1,4,5]oxathiazepine-6-carboxamide]	13	> 25	–
